# Read-outs that look alike come from different tables or passages of the source.
# How the values were obtained:
# CDK19/Cyclin C = CDK19/Cyclin C (Homo sapiens (Human), UniProt Q9BWU1); assay: CDK19/Cyclin C binding assay (LanthaScreen Eu-Kinase Binding Assay); conditions: read-out: CDK19-CYCC IC50
# Description: The binding assay relies on the LanthaScreen™ Eu-Kinase Binding Assay (Invitrogen).
# Assay conditions were as indicated by the kit manufacturers with the following adaptations: • Assay buffer: 50 mM HEPES, pH 7.5, 1 mM EGTA, 0.01% Brij-35, 10 mM MgCl2 • Assay volume: 20 μl • Incubation time and temperature: 60 min at 25° C. • Cdk19-Cyclin C concentration: 2 nM • Tracer concentration: 20 nM • (Eu)-labelled anti-GST antibody concentration: 2 nM • Tested compound: Serial 1:3 dilutions • Final DMSO concentration in the assay: 1%
# (§1) Assays were performed in 384-well plates. The final read out was generated using an EnVision plate reader (Perkin-Elmer).
# SW620 [1] = assay: In vitro cell proliferation assay (CellTiter-Glo), SW620; assay type: cell-based, human; conditions: growth inhibition, semiquantitative, read-out: GI50 SW620
# Description: (§2) The in vitro potency of the compounds was measured by the cell proliferation assay CellTiter-Glo® Luminescent Cell Viability Assay, commercially available from Promega Corp., Madison, Wis. This homogeneous assay method is based on the recombinant expression of Coleoptera luciferase (U.S. Pat. No. 5,583,024; U.S. Pat. No. 5,674,713; U.S. Pat. No. 5,700,670) and determines the number of viable cells in culture based on quantitation of the ATP present, an indicator of metabolically active cells (Crouch et al (1993) J. Immunol. Meth. 160:81-88; U.S. Pat. No. 6,602,677). The CellTiterGlo® Assay was conducted […] it amenable to automated high throughput screening (HTS) (Cree et al (1995) AntiCancer Drugs 6:398-404).
# (§3) The homogeneous assay procedure involves adding the single reagent (CellTiter-Glo® Reagent) directly to cells cultured in serum-supplemented medium. Cell washing, removal of medium and multiple pipetting steps are not required. The system detects as few as 15 cells/well in a 96-well format in 10 minutes after adding reagent and mixing.
# (§4) The homogeneous “add-mix-measure” format results in cell lysis and generation of a luminescent signal proportional to the amount of ATP present. The amount of ATP is directly proportional to the number of cells present in culture. The CellTiter-Glo® Assay generates a “glow-type” luminescent signal, produced by the luciferase reaction, which has a half-life generally greater than five hours, depending on cell type and medium used. Viable cells are reflected in relative luminescence units (RLU). The substrate, Beetle Luciferin, is oxidatively decarboxylated by recombinant firefly luciferase with concomitant conversion of ATP to AMP and generation of photons. The extended half-life eliminates the need to use reagent injectors and provides flexibility for continuous or batch mode processing of multiple plates. This cell proliferation assay can be used with various multiwell formats, e.g. 96 or 384 well format. Data can be recorded by luminometer or CCD camera imaging device. The luminescence output is presented as relative light units (RLU), measured over time.
# MV4:11 = assay: In vitro cell proliferation assay (CellTiter-Glo), MV4:11; assay type: cell-based; conditions: growth inhibition, semiquantitative, read-out: GI50 MV4:11
# Description: as §2, §3, §4
# Molm13 = assay: In vitro cell proliferation assay (CellTiter-Glo), Molm13; assay type: cell-based; conditions: growth inhibition, semiquantitative, read-out: GI50 Molm13
# Description: as §2, §3, §4
# intracellular CDK8 = intracellular CDK8 (Homo sapiens (Human), UniProt P49336); assay: Endogenous phosphoSTAT1 inhibition in SW620 cells growing in 10% FBS; assay type: cell-based; conditions: semiquantitative, read-out: SW620 P-STAT1(S727)
# Description: Endogenous phosphoSTAT1 inhibition can be screened in cells growing in 10% FBS. Cells are plated as described before and treated for 8 h with compounds as described before. Then cells are lysated and phospho STAT1 is evaluated as described before. The percentage of phosphorylated STAT1 vs total STAT1 in cells treated with DMSO is taken as hundred percent of phosphorylation. The percentage of STAT1 phosphorylation is finally plotted against concentration for each compound and EC50s for intracellular CDK8 inhibition are calculated using ActivityBase from IDBS.
# CDK8/Cyclin C = CDK8/Cyclin C (Homo sapiens (Human), UniProt P49336); assay: CDK8/Cyclin C binding assay (LanthaScreen Eu-Kinase Binding Assay); conditions: binding assay
# Description: The enzyme has been purchase from Invitrogen (PV4402) as a dimer of full-length His-tagged recombinant human proteins.
# as §1
# Haspin kinase = Haspin kinase (Homo sapiens (Human), UniProt Q8TF76); assay: Haspin kinase assay (ADP-Glo); assay type: biochemical; conditions: ATP 150 μM
# Excerpt: The kinase assay relies on ADP-Glo^KM biochemical kinase assay (Promega). This is a luminescent kinase assay that measures ADP formed from a kinase reaction. Then ADP is converted into ATP, which is transformed into a light signal by Ultra-Glo™ Luciferase. The luminescent signal positively correlates with kinase activity. The assay measures the intrinsic ATPase activity (in the absence of peptidic substrate as phosphate acceptor).
# The enzyme was purchase from Invitrogen (PV5708) as the kinase domain of GST tagged recombinant human proteins.
# Assay conditions were as indicated by the kit manufacturers with the following adaptations: • Assay buffer: 15 mM HEPES pH 7.4, 20 mM NaCl, 1 mM EGTA, 0.02% Tween 20, 10 mM MgCl2, 0.1 mg/ml BGG • Assay volume: 20 μl • Incubation time and temperature: 60 min at 30° C. • Haspin concentration: 20 nM • ATP concentration: 150 μM • Tested compound: Serial 1:3 dilutions • Final DMSO concentration in the assay: 1%
# Assays were performed in 384-well plates. The final read out was generated using an EnVision plate reader (Perkin-Elmer). Luminescent relative units are normalized against the control activity included for each compound (i.e., 100% Haspin activity, without compound) and the percentage of inhibition is calculated.
# MDA-MB-231 = assay: In vitro cell proliferation assay (CellTiter-Glo), MDA-MB-231; assay type: cell-based; conditions: growth inhibition, semiquantitative, read-out: GI50 MDA-MB-231
# Description: as §2, §3, §4
# SW620 [2] = assay: Combination assay, SW620; assay type: cell-based, human; conditions: SW620, chemotherapeutic alone, read-out: Chemo GI50
# Description: The combination index (CI) of combinations of certain example compounds and various chemotherapeutic agents in the CellTitetI-Glo® in vitro cell proliferation assays may be tested. A combination index score is calculated by the Chou and Talalay method (CalcuSyn software, Biosoft). The strength of synergy is scored using the ranking system Chou and Talalay: CI less than 0.8 indicates synergy, CI between 0.8 and 1.2 indicates additivity and CI greater than 1.2 indicates antagonism.
# The EC50 values of representative combinations are also calculated. The individually measured EC50 values of the chemotherapeutic agent and the example compounds are compared to the EC50 value of the combination. The cell lines are characterised by tumor type. Combination assays are performed as described in: “Pim 1 kinase inhibitor ETP-45299 suppresses cellular proliferation and synergizes with PI3K inhibition”. Blanco-Aparicio, Carmen; Collazo, Ana Maria Garcia; Oyarzabal, Julen; Leal, Juan F.; Albaran, Maria Isabel; Lima, Francisco Ramos; Pequeno, Belen; Ajenjo, Nuria; Becerra, Mercedes; Alfonso, Patricia; Reymundo, Maria Isabel; Palacios, Irene; Mateos, Genoveva; Quinones, Helena; Corrionero, Ana; Carnero, Amancio; Pevarello, Paolo; Lopez, Ana Rodriguez; Fominaya, Jesus; Pastor, Joaquin; Bischoff, James R. Cancer Letters (Shannon, Ireland) 2011, 300(2), 145-153
# Sequence of Haspin kinase (Q8TF76 484-798): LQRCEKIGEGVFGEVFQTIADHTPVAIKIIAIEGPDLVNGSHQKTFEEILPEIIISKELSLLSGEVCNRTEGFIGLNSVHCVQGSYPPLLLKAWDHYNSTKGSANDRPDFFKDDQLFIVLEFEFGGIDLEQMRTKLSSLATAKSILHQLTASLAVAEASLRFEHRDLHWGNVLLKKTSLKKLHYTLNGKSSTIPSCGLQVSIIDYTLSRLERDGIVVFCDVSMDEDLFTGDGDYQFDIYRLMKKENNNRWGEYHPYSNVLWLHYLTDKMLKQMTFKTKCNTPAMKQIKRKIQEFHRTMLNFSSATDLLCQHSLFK
# Sequence of CDK19/Cyclin C (Q9BWU1 whole entry): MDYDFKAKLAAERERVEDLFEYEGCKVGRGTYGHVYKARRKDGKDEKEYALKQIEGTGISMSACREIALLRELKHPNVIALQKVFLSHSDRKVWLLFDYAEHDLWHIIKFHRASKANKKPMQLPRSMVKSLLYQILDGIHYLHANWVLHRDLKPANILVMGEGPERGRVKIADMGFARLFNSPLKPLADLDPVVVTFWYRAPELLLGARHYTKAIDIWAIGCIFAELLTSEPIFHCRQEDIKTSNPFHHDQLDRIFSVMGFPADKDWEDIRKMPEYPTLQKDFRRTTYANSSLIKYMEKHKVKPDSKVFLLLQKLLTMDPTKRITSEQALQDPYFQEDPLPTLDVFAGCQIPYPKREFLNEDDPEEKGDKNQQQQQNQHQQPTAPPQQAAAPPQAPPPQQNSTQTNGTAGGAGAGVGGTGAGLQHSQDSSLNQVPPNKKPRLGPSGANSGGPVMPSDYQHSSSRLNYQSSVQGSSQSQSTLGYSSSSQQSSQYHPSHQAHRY
# Sequence of CDK19/Cyclin C (P24863 whole entry partner): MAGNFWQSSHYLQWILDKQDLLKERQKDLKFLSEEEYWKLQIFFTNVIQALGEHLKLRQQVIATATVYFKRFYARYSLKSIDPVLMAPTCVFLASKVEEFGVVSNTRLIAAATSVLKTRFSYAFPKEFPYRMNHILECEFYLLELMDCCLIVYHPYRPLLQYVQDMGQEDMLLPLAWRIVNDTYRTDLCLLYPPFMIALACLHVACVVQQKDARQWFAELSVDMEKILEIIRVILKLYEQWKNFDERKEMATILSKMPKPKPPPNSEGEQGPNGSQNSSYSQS
# Sequence of intracellular CDK8 (P49336 whole entry): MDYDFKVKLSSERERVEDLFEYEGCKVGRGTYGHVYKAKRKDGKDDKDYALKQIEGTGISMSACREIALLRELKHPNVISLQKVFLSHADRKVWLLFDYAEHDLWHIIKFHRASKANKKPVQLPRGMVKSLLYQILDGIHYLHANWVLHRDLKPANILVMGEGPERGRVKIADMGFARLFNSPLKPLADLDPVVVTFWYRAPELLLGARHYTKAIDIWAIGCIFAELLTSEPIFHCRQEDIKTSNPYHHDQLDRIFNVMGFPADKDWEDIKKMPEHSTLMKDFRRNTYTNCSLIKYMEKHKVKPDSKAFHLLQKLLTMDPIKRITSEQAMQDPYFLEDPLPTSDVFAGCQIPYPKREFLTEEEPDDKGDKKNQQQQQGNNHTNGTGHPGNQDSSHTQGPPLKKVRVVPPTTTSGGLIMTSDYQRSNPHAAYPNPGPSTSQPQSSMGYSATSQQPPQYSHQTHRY
# Sequence of intracellular CDK8 (P24863 whole entry partner): as the sequence (P24863 whole entry partner) above
# Sequence of intracellular CDK8 (Q93074 whole entry partner): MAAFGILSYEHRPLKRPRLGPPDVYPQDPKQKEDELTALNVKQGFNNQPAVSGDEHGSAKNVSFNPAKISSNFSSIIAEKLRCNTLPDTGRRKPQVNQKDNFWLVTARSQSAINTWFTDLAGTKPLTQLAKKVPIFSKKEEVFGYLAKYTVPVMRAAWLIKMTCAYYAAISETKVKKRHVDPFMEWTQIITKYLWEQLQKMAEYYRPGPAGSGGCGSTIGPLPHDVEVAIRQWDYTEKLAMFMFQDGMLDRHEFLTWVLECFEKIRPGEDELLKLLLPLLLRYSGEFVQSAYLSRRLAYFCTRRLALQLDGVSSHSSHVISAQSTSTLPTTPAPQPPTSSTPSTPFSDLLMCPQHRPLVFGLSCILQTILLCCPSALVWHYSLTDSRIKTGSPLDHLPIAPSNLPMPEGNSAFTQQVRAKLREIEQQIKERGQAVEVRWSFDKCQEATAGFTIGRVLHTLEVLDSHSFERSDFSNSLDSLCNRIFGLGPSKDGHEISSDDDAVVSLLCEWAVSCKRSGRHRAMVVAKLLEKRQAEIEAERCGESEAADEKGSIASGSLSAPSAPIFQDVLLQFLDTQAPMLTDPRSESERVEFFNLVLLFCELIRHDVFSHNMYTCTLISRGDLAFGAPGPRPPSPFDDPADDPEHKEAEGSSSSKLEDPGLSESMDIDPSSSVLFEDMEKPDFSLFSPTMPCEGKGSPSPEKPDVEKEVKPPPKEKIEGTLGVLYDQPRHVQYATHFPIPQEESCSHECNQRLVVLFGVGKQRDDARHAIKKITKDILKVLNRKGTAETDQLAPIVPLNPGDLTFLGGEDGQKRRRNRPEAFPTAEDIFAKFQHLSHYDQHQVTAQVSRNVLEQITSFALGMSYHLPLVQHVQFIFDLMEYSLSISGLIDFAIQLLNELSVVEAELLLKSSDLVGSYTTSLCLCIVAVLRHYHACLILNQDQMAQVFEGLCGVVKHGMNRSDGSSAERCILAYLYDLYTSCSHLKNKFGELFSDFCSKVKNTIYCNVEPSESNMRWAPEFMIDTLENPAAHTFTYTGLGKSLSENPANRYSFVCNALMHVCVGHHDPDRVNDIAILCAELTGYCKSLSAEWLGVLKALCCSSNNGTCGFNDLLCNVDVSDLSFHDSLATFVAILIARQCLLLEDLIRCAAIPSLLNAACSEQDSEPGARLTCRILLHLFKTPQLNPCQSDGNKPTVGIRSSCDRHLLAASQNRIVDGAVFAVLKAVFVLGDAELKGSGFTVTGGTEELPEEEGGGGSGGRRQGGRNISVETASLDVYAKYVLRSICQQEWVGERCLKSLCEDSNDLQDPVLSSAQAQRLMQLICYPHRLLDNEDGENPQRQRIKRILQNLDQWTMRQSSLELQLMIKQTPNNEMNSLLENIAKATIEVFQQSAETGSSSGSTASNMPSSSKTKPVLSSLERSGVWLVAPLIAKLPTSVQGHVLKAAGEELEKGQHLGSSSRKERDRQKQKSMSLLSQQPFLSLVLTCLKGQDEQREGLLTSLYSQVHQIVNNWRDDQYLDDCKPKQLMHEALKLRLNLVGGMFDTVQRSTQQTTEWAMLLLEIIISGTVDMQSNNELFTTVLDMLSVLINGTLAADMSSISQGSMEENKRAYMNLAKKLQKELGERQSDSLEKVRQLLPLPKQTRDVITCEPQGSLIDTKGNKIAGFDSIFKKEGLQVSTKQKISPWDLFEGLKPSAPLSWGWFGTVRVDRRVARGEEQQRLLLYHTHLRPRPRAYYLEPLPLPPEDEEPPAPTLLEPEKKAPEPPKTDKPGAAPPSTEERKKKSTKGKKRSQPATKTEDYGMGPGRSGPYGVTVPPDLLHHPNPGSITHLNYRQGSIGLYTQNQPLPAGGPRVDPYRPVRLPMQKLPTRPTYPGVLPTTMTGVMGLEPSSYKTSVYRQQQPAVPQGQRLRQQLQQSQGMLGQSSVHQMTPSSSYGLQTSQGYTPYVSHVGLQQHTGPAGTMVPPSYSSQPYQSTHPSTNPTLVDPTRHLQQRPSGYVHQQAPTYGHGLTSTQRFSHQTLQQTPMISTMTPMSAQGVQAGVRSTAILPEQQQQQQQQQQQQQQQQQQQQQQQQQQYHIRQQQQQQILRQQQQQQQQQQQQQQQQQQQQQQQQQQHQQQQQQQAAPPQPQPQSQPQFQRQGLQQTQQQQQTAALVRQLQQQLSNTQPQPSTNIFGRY
# Sequence of CDK8/Cyclin C (P49336 whole entry): as the sequence (P49336 whole entry) above
# Sequence of CDK8/Cyclin C (P24863 whole entry partner): as the sequence (P24863 whole entry partner) above
IC50 (CDK19/Cyclin C),"GI50 (SW620 [1]; Homo sapiens, SW-620)","GI50 (MV4:11; Homo sapiens, MV4-11)","GI50 (Molm13; Homo sapiens, MOLM-13)",EC50 (intracellular CDK8),IC50 (CDK8/Cyclin C),IC50 (Haspin kinase),"GI50 (MDA-MB-231; Homo sapiens, MDA-MB-231)","GI50 (SW620 [2]; Homo sapiens, SW-620)",GI50 (SW620 [1]),GI50 (MV4:11),GI50 (Molm13),GI50 (MDA-MB-231),Compound,GI50 (SW620 [2])
1.41 nM,1000 to 10000 nM,< 1000 nM,< 1000 nM,< 500 nM,0.278 nM,9.8 nM,1000 to 10000 nM,–,–,–,–,–,Cn1c(C(N)=O)cc2c1-c1ccncc1OC21CCCCC1 [Example 83],–
0.48 nM,1000 to 10000 nM,< 1000 nM,1000 to 10000 nM,< 500 nM,4.33 nM,34.5 nM,1000 to 10000 nM,–,–,–,–,–,CC1(C)Oc2cnccc2-c2[nH]c(C(N)=O)c(C3CC3)c21 [Example 86],–
–,–,–,–,–,–,–,–,–,–,–,–,–,"O=C1[O][Pt]2([NH][C@@H]3CCCC[C@H]3[NH]2)[O]C1=O [Oxaliplatin, oxaliplatin, reference compound]",5000 nM
–,–,–,–,–,–,–,–,500 nM,–,–,–,–,"COc1ccc(S(=O)(=O)Nc2cccnc2Nc2ccc(O)cc2)cc1 [ABT-751, reference compound]",–
0.77 nM,1000 to 10000 nM,< 1000 nM,< 1000 nM,< 500 nM,0.314 nM,–,1000 to 10000 nM,–,–,–,–,–,CCn1c(C(N)=O)cc2c1-c1ccncc1OC21CCCCC1 [Example 80],–
1.41 nM,–,–,–,–,0.407 nM,95.2 nM,–,–,10000 to 100000 nM,< 1000 nM,< 1000 nM,10000 to 100000 nM,"CCn1c(C(N)=O)cc2c1-c1ccncc1O[C@H]2C1CCCCC1 (single isomer, unassigned) [Example 89]",–
–,10000 to 100000 nM,< 1000 nM,1000 to 10000 nM,–,13.9 nM,106 nM,10000 to 100000 nM,–,–,–,–,–,CCn1c(C(N)=O)c(-c2cccc(OC)c2)c2c1-c1ccncc1OC2(C)C [Example 88],–
47.3 nM,< 1000 nM,–,–,–,1.41 nM,–,–,–,–,–,–,–,NC(=O)c1cc2c([nH]1)-c1ccncc1OC2C1CCCCC1 (stereo not drawn) [Example 57],–
11.9 nM,–,1000 to 10000 nM,–,–,2.59 nM,38.1 nM,10000 to 100000 nM,–,–,–,–,–,CC1(C)Oc2cnccc2-c2[nH]c(C(N)=O)cc21 [Example 1],–

Compound,IC50 (CDK19/Cyclin C),"GI50 (SW620 [1]; Homo sapiens, SW-620)","GI50 (MV4:11; Homo sapiens, MV4-11)","GI50 (Molm13; Homo sapiens, MOLM-13)",EC50 (intracellular CDK8),IC50 (CDK8/Cyclin C),IC50 (Haspin kinase),"GI50 (MDA-MB-231; Homo sapiens, MDA-MB-231)","GI50 (SW620 [2]; Homo sapiens, SW-620)",GI50 (SW620 [1]),GI50 (MV4:11),GI50 (Molm13),GI50 (MDA-MB-231),GI50 (SW620 [2])
NC(=O)c1cc2c([nH]1)-c1ccncc1OC21CCN(CCc2ccccc2)CC1 [Example 46],585 nM,1000 to 10000 nM,< 1000 nM,< 1000 nM,–,445 nM,81.3 nM,1000 to 10000 nM,–,–,–,–,–,–
NC(=O)c1cc2c([nH]1)-c1ccncc1OC21CCN(CC(F)(F)F)CC1 [Example 18],40.5 nM,10000 to 100000 nM,1000 to 10000 nM,1000 to 10000 nM,–,20.2 nM,344 nM,10000 to 100000 nM,–,–,–,–,–,–
